Source: patent publication US20100209537A1, “Metal complexes with anticancer activity” (priority 2009, published 2010)

Assays:
[1] = system: ovarian cancer cell line A2780; assay: MTT assay, ovarian cancer cell line A2780; type: cell-based, human; conditions: n = 3, A2780
Description: MTT [3-(4,5-dimethylthiazol-2yl)-2,5-diphenyltetrazolium bromide] method:
MTT is used to measure the metabolic activity of viable cells. The assay is non-radioactive and can be performed entirely in a micro titer plate (MTP). It is suitable for measuring cell proliferation, cell viability or cytotoxicity. The reaction produces water-insoluble formazan salt that must be solubilized. Procedure involves culturing the cells in a 96-well micro titer plate, and then incubating them with MTT solution for approximately 2 hours. During incubation period, viable cells convert MTT to a water-insoluble formazan dye. The formazan dye in the MTP is solubilized and quantified with an ELISA plate reader. The absorbance directly correlates with the cell number. This can be applicable for adherent cells cultured in MTP.
Compounds were tested at concentrations of 3 and 30 μg/ml by MTT assay using the ovarian cancer cell line A2780.

[2] = Solubility in water and organic solvents; type: physicochemical
[3] = Stability at room temperature; type: physicochemical

Structure (SMILES)	solubility in dimethylformamide and dimethylsulphoxide [2]	solubility in methanol and acetone [2]	solubility in water [2]	stability at room temperature [3]	Percent surviving cells of DMSO control (Mean) ([1]; 3 μg/ml)	Percent surviving cells of DMSO control (Mean) ([1]; 30 μg/ml)
Oc1ccccc1C=NNc1nc2ccccc2nc1Cl [RM2, 2-hydroxybenzaldehyde-1-(3-chloro-2-quinoxalinyl) hydrazone]	fairly soluble	very slightly soluble	insoluble	stable	0.4%	0.4%
COc1cccc(C=NNc2nc3ccccc3nc2Cl)c1O [RM5, 2-Hydroxy-3-methoxybenzaldehyde-1-(3-chloro-2-quinoxalinyl)-hydrazone]	fairly soluble	very slightly soluble	insoluble	stable	0.6%	0.2%
Oc1ccc2ccccc2c1C=NNc1nc2ccccc2nc1Cl [RM7, 2-hydroxy-1-naphthaldehyde-1-(3-chloro-2-quinoxalinyl)hydrazone]	fairly soluble	very slightly soluble	insoluble	stable	6.6%	0.9%
Oc1ccc2ccccc2c1C=NNc1nc2ccccc2nc1Cl [RM8, 2-hydroxy-1-naphthaldehyde-1-(3-chloro-2-quinoxalinyl)hydrazone]	fairly soluble	very slightly soluble	insoluble	stable	0.3%	0.1%

The next lines start with results.

solubility in dimethylformamide and dimethylsulphoxide [2]	solubility in methanol and acetone [2]	solubility in water [2]	stability at room temperature [3]	Structure (SMILES)	Percent surviving cells of DMSO control (Mean) ([1]; 3 μg/ml)	Percent surviving cells of DMSO control (Mean) ([1]; 30 μg/ml)
fairly soluble	very slightly soluble	insoluble	stable	Clc1nc2ccccc2nc1NN=Cc1ccccn1 [RM10, 2-pyridinecarbaldehyde-2-(3-chloro-2-quinoxalinyl)hydrazone]	4.6%	1%
fairly soluble	very slightly soluble	insoluble	stable	Clc1nc2ccccc2nc1NN=Cc1ccccn1 [RM11, 2-pyridinecarbaldehyde-2-(3-chloro-2-quinoxalinyl)hydrazone]	0.4%	0.7%
fairly soluble	very slightly soluble	insoluble	stable	Clc1nc2ccccc2nc1NN=Cc1ccco1 [RM14, 2-furaldehyde-2-(3-chloro-2-quinoxalinyl)hydrazone]	13.2%	0.7%
